This note sets out measurements from patent US20240018123A1, “COMPOUND FOR INHIBITING OR DISINTEGRATING ANDROGEN RECEPTOR, AND PHARMACEUTICAL USE THEREOF” (KOREA RESEARCH INSTITUTE OF CHEMICAL TECHNOLOGY, priority 2020, published 2024).

The target of one data set is T1, Androgen receptor (AR) (Homo sapiens, UniProt P10275, T878A).
T1 construct: 5.5×10^5 LNCap cells were injected into each well of a 6-well plate; endogenous in cells; host or cells: LNCaP
T1 sequence (P10275 1-920 T878A): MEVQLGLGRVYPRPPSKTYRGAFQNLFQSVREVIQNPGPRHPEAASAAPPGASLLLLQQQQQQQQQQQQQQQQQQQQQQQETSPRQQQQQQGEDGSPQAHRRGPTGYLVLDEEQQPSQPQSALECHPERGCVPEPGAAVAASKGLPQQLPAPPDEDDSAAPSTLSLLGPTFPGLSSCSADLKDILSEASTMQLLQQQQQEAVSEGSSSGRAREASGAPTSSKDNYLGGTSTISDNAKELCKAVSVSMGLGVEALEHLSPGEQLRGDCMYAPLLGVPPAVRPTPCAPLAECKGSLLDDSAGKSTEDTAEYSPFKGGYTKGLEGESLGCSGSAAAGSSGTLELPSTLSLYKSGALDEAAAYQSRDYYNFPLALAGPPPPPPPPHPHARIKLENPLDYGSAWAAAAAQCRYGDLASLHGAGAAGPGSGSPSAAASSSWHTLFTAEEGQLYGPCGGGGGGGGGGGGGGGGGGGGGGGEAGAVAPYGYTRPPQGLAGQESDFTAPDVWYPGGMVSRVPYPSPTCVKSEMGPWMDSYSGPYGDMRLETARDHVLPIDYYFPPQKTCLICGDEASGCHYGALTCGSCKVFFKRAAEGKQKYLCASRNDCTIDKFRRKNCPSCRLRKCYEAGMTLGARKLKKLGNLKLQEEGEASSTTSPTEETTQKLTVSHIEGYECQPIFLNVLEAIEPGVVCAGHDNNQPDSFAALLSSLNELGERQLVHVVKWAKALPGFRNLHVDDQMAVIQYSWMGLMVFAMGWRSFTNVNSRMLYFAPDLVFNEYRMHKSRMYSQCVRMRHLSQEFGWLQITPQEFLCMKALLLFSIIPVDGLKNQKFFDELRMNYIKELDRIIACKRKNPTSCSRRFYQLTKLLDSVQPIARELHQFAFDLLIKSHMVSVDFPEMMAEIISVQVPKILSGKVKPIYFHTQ
Description: Assessment of AR proteolytic activity (Western blotting of LNCap cell lysates). Type of data set: cell-based. The note with it: 24 hours of treatment, Western blotting quantified with Image J; for remaining activity at 1 µM: read-out: Degradation (1 μM treated in LNCaP, % AR remaining). An outline of the steps: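 AR degradation read by Western blot densitometry on RIPA lysates (pH 7.5, protease inhibitor cocktail). Lysates came from LNCap cells, 5.5×10^5 per well, exposed to compound for 24 hours.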
A general note: Immunoblotting shows a protein as a band on a membrane.

Data set [1] concerns VCaP cells.
The test system of data set [2] is VCaP cells. Description: Cytotoxicity assessment (Cell-titer-glo cell viability), VCaP.
[3] abbreviates: read-out: VCaP (CC50), VCaP cells, 6 days of treatment, Cell-titer-glo, vs DMSO.
Where [4] appears, read: Homo sapiens, VCaP, 144 h, read-out: VCaP (CC50, μM).

As usually defined, the CC50 is the concentration that lowers cell viability or growth by half.

Like-named read-outs stand apart in the source and are kept apart here.

Turning to `CC1(C)C(NC(=O)c2ccc(C#CCC3CCN(c4ccc5nnn(C6CCC(=O)NC6=O)c(=O)c5c4)CC3)cc2)C(C)(C)C1Oc1ccc(C#N)c(Cl)c1` (centres unmarked) [Example 85, N-((1r,3r)-3-(3-chloro-4-cyanophenoxy)-2,2,4,4-tetramethylcyclobutyl)-4-(3-(1-(3-(2,6-dioxopiperidin-3-yl)-4-oxo-3,4-dihydrobenzo[d][1,2,3]triazin-6-yl)piperidin-4-yl)prop-1-yn-1-yl)benzamide], the “Degradation (1 μM treated in LNCaP, % AR remaining)” value at Androgen receptor (AR) was 21%. This compound came in with a half-maximal cytotoxic concentration (CC50) in the data set on VCaP cells [1] of 0.171 µM.
The matching figures for `CC1(C)C(NC(=O)c2ccc(N3CCN(C=C4CCN(c5ccc6nnn(C7CCC(=O)NC7=O)c(=O)c6c5)CC4)CC3)cc2)C(C)(C)C1Oc1ccc(C#N)c(Cl)c1` (centres unmarked) [Example 64, N-((1r,3r)-3-(3-chloro-4-cyanophenoxy)-2,2,4,4-tetramethylcyclobutyl)-4-(4-((1-(3-(2,6-dioxopiperidin-3-yl)-4-oxo-3,4-dihydrobenzo[d][1,2,3]triazin-6-yl)piperidin-4-ylidene)methyl)piperazin-1-yl)benzamide]: 56% and 0.0762 µM.
As to `CC1(C)[C@H](NC(=O)c2ccc(C3CCN(CC4CCN(C(=O)C5CCN(c6ccc7nnn(C8CCC(=O)NC8=O)c(=O)c7c6)CC5)CC4)CC3)cc2)C(C)(C)[C@H]1Oc1ccc(C#N)c(Cl)c1` (some centres unmarked) [Example 51, N-((1r,3r)-3-(3-chloro-4-cyanophenoxy)-2,2,4,4-tetramethylcyclobutyl)-4-(1-((1-(1-(3-(2,6-dioxopiperidin-3-yl)-4-oxo-3,4-dihydrobenzo[d][1,2,3]triazin-6-yl)piperidine-4-carbonyl)piperidin-4-yl)methyl)piperidin-4-yl)benzamide], the “Degradation (1 μM treated in LNCaP, % AR remaining)” value at Androgen receptor (AR) is reported as 10.4%. For the same compound, the CC50 in the data set with VCaP cells [2] (setting [3]) turned out to be 0.228 µM.
For `CC1(C)[C@H](NC(=O)c2ccc(N3CCC(CN4CCN(C(=O)C5CCN(c6ccc7nnn(C8CCC(=O)NC8=O)c(=O)c7c6)CC5)CC4)CC3)cc2)C(C)(C)[C@H]1Oc1ccc(C#N)c(Cl)c1` (some centres unmarked) [Example 49, N-((1r,3r)-3-(3-chloro-4-cyanophenoxy)-2,2,4,4-tetramethylcyclobutyl)-4-(4-((4-(1-(3-(2,6-dioxopiperidin-3-yl)-4-oxo-3,4-dihydrobenzo[d][1,2,3]triazin-6-yl)piperidine-4-carbonyl)piperazin-1-yl)methyl)piperidin-1-yl)benzamide], the remaining activity at 1 µM at Androgen receptor (AR) is 8.6%. Besides, the CC50 in the data set on VCaP cells [2] (setting [4]) came out at 0.0678 µM.
The matching figures for `CC1(C)[C@H](NC(=O)c2ccc(C3CCN(CC4CCN(c5ccc6nnn(C7CCC(=O)NC7=O)c(=O)c6c5)CC4)CC3)cc2)C(C)(C)[C@H]1Oc1ccc(C#N)c(Cl)c1` (some centres unmarked) [Example 50, N-((1r,3r)-3-(3-chloro-4-cyanophenoxy)-2,2,4,4-tetramethylcyclobutyl)-4-(1-((1-(3-(2,6-dioxopiperidin-3-yl)-4-oxo-3,4-dihydrobenzo[d][1,2,3]triazin-6-yl)piperidin-4-yl)methyl)piperidin-4-yl)benzamide]: 6.8% and 0.223 µM.
Turning to `CC1(C)[C@H](NC(=O)c2ccc(C3CCN(CC4CCN(C(=O)C5CCN(c6ccc7nnn(C8CCC(=O)NC8=O)c(=O)c7c6)CC5)CC4)CC3)cc2)C(C)(C)[C@H]1Oc1ccc(C#N)c(Cl)c1` (some centres unmarked) [Example 52, N-((1r,3r)-3-(3-chloro-4-cyanophenoxy)-2,2,4,4-tetramethylcyclobutyl)-4-(1-((1-(1-(3-(2,6-dioxopiperidin-3-yl)-4-oxo-3,4-dihydrobenzo[d][1,2,3]triazin-6-yl)piperidine-4-carbonyl)piperidin-4-yl)methyl)piperidin-4-yl)benzamide], the “Degradation (1 μM treated in LNCaP, % AR remaining)” value on Androgen receptor (AR) was found to be 32.2%. The CC50 in the data set with VCaP cells [2] (setting [3]) was 0.0594 µM.
For `CC1(C)C(NC(=O)c2ccc(N3CCN(CCCC4CCN(C(=O)C5CCN(c6ccc7nnn(C8CCC(=O)NC8=O)c(=O)c7c6)CC5)CC4)CC3)cc2)C(C)(C)C1Oc1ccc(C#N)c(Cl)c1` (centres unmarked) [Example 46, N-((1r,3r)-3-(3-chloro-4-cyanophenoxy)-2,2,4,4-tetramethylcyclobutyl)-4-(4-(3-(1-(1-(3-(2,6-dioxopiperidin-3-yl)-4-oxo-3,4-dihydrobenzo[d][1,2,3]triazin-6-yl)piperidine-4-carbonyl)piperidin-4-yl)propyl)piperazin-1-yl)benzamide], the “Degradation (1 μM treated in LNCaP, % AR remaining)” value at Androgen receptor (AR) was 15.6%. In addition, in the data set with VCaP cells [2] (setting [3]), the CC50 came out at 0.0522 µM.
The matching figures for `CC1(C)C(NC(=O)c2ccc(N3CCN(CC4(F)CCN(C(=O)C5CCN(c6ccc7nnn(C8CCC(=O)NC8=O)c(=O)c7c6)CC5)CC4)CC3)cc2)C(C)(C)C1Oc1ccc(C#N)c(Cl)c1` (centres unmarked) [Example 62, N-((1r,3r)-3-(3-chloro-4-cyanophenoxy)-2,2,4,4-tetramethylcyclobutyl)-4-(4-((1-(1-(3-(2,6-dioxopiperidin-3-yl)-4-oxo-3,4-dihydrobenzo[d][1,2,3]triazin-6-yl)piperidine-4-carbonyl)-4-fluoropiperidin-4-yl)methyl)piperazin-1-yl)benzamide]: 15% and 0.0345 µM.
For `CC1(C)C(NC(=O)c2ccc(N3CCN(CC4CCN(C(=O)C5CCN(c6ccc7nnn(C8CCC(=O)NC8=O)c(=O)c7c6)CC5)CC4)CC3)nc2)C(C)(C)C1Oc1ccc(C#N)c(Cl)c1` (centres unmarked) [Example 81, N-((1r,3r)-3-(3-chloro-4-cyanophenoxy)-2,2,4,4-tetramethylcyclobutyl)-6-(4-((1-(1-(3-(2,6-dioxopiperidin-3-yl)-4-oxo-3,4-dihydrobenzo[d][1,2,3]triazin-6-yl)piperidine-4-carbonyl)piperidin-4-yl)methyl)piperazin-1-yl)nicotinamide], in that order: 18% and 0.0238 µM.
For `CC1(C)C(NC(=O)c2cnc(N3CCN(CC4CCN(c5ccc6nnn(C7CCC(=O)NC7=O)c(=O)c6c5)CC4)CC3)cn2)C(C)(C)C1Oc1ccc(C#N)c(Cl)c1` (centres unmarked) [Example 79, N-((1r,3r)-3-(3-chloro-4-cyanophenoxy)-2,2,4,4-tetramethylcyclobutyl)-5-(4-((1-(3-(2,6-dioxopiperidin-3-yl)-4-oxo-3,4-dihydrobenzo[d][1,2,3]triazin-6-yl)piperidin-4-yl)methyl)piperazin-1-yl)pyrazine-2-carboxamide], in that order: 45% and 0.2 µM.
Regarding `CC1(C)[C@H](NC(=O)c2ccc(N3CCN(C(=O)CNc4ccc5nnn(C6CCC(=O)NC6=O)c(=O)c5c4)CC3)cc2)C(C)(C)[C@H]1Oc1ccc(C#N)c(Cl)c1` (some centres unmarked) [Example 40, N-((1r,3r)-3-(3-chloro-4-cyanophenoxy)-2,2,4,4-tetramethylcyclobutyl)-4-(4-((3-(2,6-dioxopiperidin-3-yl)-4-oxo-3,4-dihydrobenzo[d][1,2,3]triazin-6-yl)glycyl)piperazin-1-yl)benzamide], the “Degradation (1 μM treated in LNCaP, % AR remaining)” value at Androgen receptor (AR) came to 19.7%. In addition, the CC50 with VCaP cells [2] (setting [3]) is 0.0243 µM.
For `CC1(C)C(NC(=O)c2ccc(N3CCN(CCCOC4CCN(C(=O)C5CCN(c6ccc7nnn(C8CCC(=O)NC8=O)c(=O)c7c6)CC5)CC4)CC3)cc2)C(C)(C)C1Oc1ccc(C#N)c(Cl)c1` (centres unmarked) [Example 35, N-((1r,3r)-3-(3-chloro-4-cyanophenoxy)-2,2,4,4-tetramethylcyclobutyl)-4-(4-(3-((1-(1-(3-(2,6-dioxopiperidin-3-yl)-4-oxo-3,4-dihydrobenzo[d][1,2,3]triazin-6-yl)piperidine-4-carbonyl)piperidin-4-yl)oxy)propyl)piperazin-1-yl)benzamide], in that order: 6.4% and 0.0525 µM.
With `CC1(C)[C@H](NC(=O)c2ccc(N3CCN(C(=O)C4CCN(c5ccc6nnn(C7CCC(=O)NC7=O)c(=O)c6c5)CC4)CC3)cc2)C(C)(C)[C@H]1Oc1ccc(C#N)c(Cl)c1` (some centres unmarked) [Example 42, N-((1r,3r)-3-(3-chloro-4-cyanophenoxy)-2,2,4,4-tetramethylcyclobutyl)-4-(4-(1-(3-(2,6-dioxopiperidin-3-yl)-4-oxo-3,4-dihydrobenzo[d][1,2,3]triazin-6-yl)piperidine-4-carbonyl)piperazin-1-yl)benzamide], the “Degradation (1 μM treated in LNCaP, % AR remaining)” value at Androgen receptor (AR) came out at 10%. The CC50 in the data set with VCaP cells [2] (setting [3]) amounted to 0.0494 µM.
